What is called inhibition is the percentage by which the read-out fell short of the control.

The record followed here is ChEMBL document CHEMBL3045927, “Synthesis of 4-methyl-1,2,3-thiadiazole derivatives via Ugi reaction and their biological activities” (2010).

Common to all, as to type: functional
The subject of experiment [1] is Nicotiana tabacum. Nature of the experiment: Induction of systemic acquired resistance activity in TMV infected-Nicotiana tabacum (tobacco) leaves at 100 ug/ml.
The subject of experiment [2] is Tobacco mosaic virus. In words: In vivo antiviral activity against Tobacco mosaic virus (TMV) infected tobacco leaves assessed as curative effect at 500 ug/ml treated after viral inoculation measured at 2-3 days after viral challenge.
The subject of the next experiment is Thanatephorus cucumeris. Nature of the experiment: Fungicidal activity against Thanatephorus cucumeris at 50 ug/ml by growth inhibition method. More on the design: scale not given: the % may be the effect or the level left.
For experiment [3], the system named is Botryosphaeria berengeriana. Nature of the experiment: Fungicidal activity against Botryosphaeria berengeriana at 50 ug/ml by growth inhibition method. Set-up: scale not given: the % may be the effect or the level left.
Experiment [4] relates to Tobacco mosaic virus. Nature of the experiment: In vivo antiviral activity against Tobacco mosaic virus (TMV) infected tobacco leaves assessed as protective effect at 100 ug/ml treated 12 hr before viral inoculation measured at 2-3 days after viral challenge.
The next experiment has as its system Alternaria solani. Nature of the experiment: Fungicidal activity against Alternaria solani at 50 ug/ml by growth inhibition method. More on the design: scale not given: the % may be the effect or the level left.
Experiment [5] relates to Tobacco mosaic virus. Nature of the experiment: In vivo antiviral activity against Tobacco mosaic virus (TMV) infected tobacco leaves assessed as protective effect at 500 ug/ml treated 12 hr before viral inoculation measured at 2-3 days after viral challenge.
Experiment [6] concerns Tobacco mosaic virus. Nature of the experiment: In vitro antiviral activity against Tobacco mosaic virus (TMV) infected tobacco leaves at 500 ug/ml.
The subject of the next experiment is Cercospora beticola. In words: Fungicidal activity against Cercospora beticola at 50 ug/ml by growth inhibition method. Set-up: scale not given: the % may be the effect or the level left.
In another experiment the test system is Mycosphaerella arachidis. Nature of the experiment: Fungicidal activity against Mycosphaerella arachidis at 50 ug/ml by growth inhibition method. More on the design: scale not given: the % may be the effect or the level left.
In another experiment the test system is Colletotrichum lagenaria. In words: Fungicidal activity against Colletotrichum lagenaria at 50 ug/ml by growth inhibition method. Set-up: scale not given: the % may be the effect or the level left.
For experiment [7], the system named is Tobacco mosaic virus. Nature of the experiment: In vitro antiviral activity against Tobacco mosaic virus (TMV) infected tobacco leaves at 100 ug/ml.
Another experiment concerns Rhizoctonia solani. Nature of the experiment: Fungicidal activity against Rhizoctonia solani at 50 ug/ml by growth inhibition method. Set-up: scale not given: the % may be the effect or the level left.
Another experiment relates to Pyricularia grisea. Nature of the experiment: Fungicidal activity against Magnaporthe grisea at 50 ug/ml by growth inhibition method. Set-up: scale not given: the % may be the effect or the level left.
In experiment [8] the test system is Nicotiana tabacum. In words: Induction of systemic acquired resistance activity in TMV infected-Nicotiana tabacum (tobacco) leaves at 50 ug/ml.
Experiment [9] deals with Tobacco mosaic virus. Nature of the experiment: In vivo antiviral activity against Tobacco mosaic virus (TMV) infected tobacco leaves assessed as inactivation effect at 100 ug/ml co-treated with virus for 30 min before inoculation onto leaves measured at 2-3 days after viral challenge.
The subject of a further experiment is Fusarium graminearum. In words: Fungicidal activity against Fusarium graminearum at 50 ug/ml by growth inhibition method. More on the design: scale not given: the % may be the effect or the level left.
The next experiment relates to Phytophthora infestans. In words: Fungicidal activity against Phytophthora infestans at 50 ug/ml by growth inhibition method. More on the design: scale not given: the % may be the effect or the level left.
Experiment [10] relates to Tobacco mosaic virus. In words: In vivo antiviral activity against Tobacco mosaic virus (TMV) infected tobacco leaves assessed as inactivation effect at 500 ug/ml co-treated with virus for 30 min before inoculation onto leaves measured at 2-3 days after viral challenge.
Experiment [11] relates to Tobacco mosaic virus. In words: In vivo antiviral activity against Tobacco mosaic virus (TMV) infected tobacco leaves assessed as curative effect at 100 ug/ml treated after viral inoculation measured at 2-3 days after viral challenge.

For `Cc1ccc(N(C(=O)c2snnc2C)C(C(=O)NC2CCCCC2)c2ccccc2C(F)(F)F)cc1F` (stereo not given), the Activity was determined as 45% in the experiment on Nicotiana tabacum [1]; 30% in the experiment on Tobacco mosaic virus [2]; 11% in the experiment on Thanatephorus cucumeris; 23% in experiment [3]; 49% in the experiment with Tobacco mosaic virus [4]; 44% in the experiment with Alternaria solani. For the same molecule, the Activity with Tobacco mosaic virus [5] turned out to be 51%; with Cercospora beticola it was 75%; in the experiment on Mycosphaerella arachidis, 29%; in the experiment on Colletotrichum lagenaria, 47%; in the experiment with Rhizoctonia solani, 37%; with Pyricularia grisea, 29%. In addition, the Activity in the experiment with Nicotiana tabacum [8] was found to be 57%; in the experiment on Tobacco mosaic virus [9] it was 26%; in the experiment on Fusarium graminearum, 15%; in the experiment on Phytophthora infestans, 53%; with Tobacco mosaic virus [10] it was 39%; in the experiment with Tobacco mosaic virus [11] it was 13%. Moreover, the inhibition at 500 µg/mL in the experiment on Tobacco mosaic virus [6] was 48%. Moreover, the inhibition at 100 µg/mL with Tobacco mosaic virus [7] was 33%.
With `Cc1ccc(N(C(=O)c2snnc2C)C(C(=O)NC2CCCCC2)c2cccc(C(F)(F)F)c2)cc1F` (stereo not given), the Activity was determined as 38% in the experiment on Nicotiana tabacum [1]; 42% in the experiment with Tobacco mosaic virus [2]; 74% with Thanatephorus cucumeris; 85% in experiment [3]; 19% in the experiment with Tobacco mosaic virus [4]; 100% with Alternaria solani. The Activity in the experiment on Tobacco mosaic virus [5] is recorded as 54%; with Cercospora beticola it was 0%; with Mycosphaerella arachidis, 71%; in the experiment on Colletotrichum lagenaria, 95%; in the experiment on Rhizoctonia solani it was 97%; in the experiment with Pyricularia grisea, 14%. For the same molecule, the Activity stood at 68% with Nicotiana tabacum [8]; 21% in the experiment on Tobacco mosaic virus [9]; 62% in the experiment on Fusarium graminearum; 88% with Phytophthora infestans; 31% with Tobacco mosaic virus [10]; 28% in the experiment with Tobacco mosaic virus [11]. Testing at 500 µg/mL with Tobacco mosaic virus [6] gave an inhibition of 67%. Also, testing at 100 µg/mL in the experiment on Tobacco mosaic virus [7] gave an inhibition of 29%.
Regarding `Cc1ccc(N(C(=O)c2snnc2C)C(C(=O)NC2CCCCC2)c2cccc([N+](=O)[O-])c2)cc1F` (stereo not given), the Activity is 68% in the experiment with Nicotiana tabacum [1]; 56% in the experiment on Tobacco mosaic virus [2]; 45% with Thanatephorus cucumeris; 32% in [3]; 27% in the experiment with Tobacco mosaic virus [4]; 0% in the experiment with Alternaria solani. The Activity in the experiment on Tobacco mosaic virus [5] is reported as 55%; in the experiment on Cercospora beticola, 33%; in the experiment with Mycosphaerella arachidis it was 57%; in the experiment on Colletotrichum lagenaria, 10%; in the experiment on Rhizoctonia solani, 30%; in the experiment on Pyricularia grisea, 14%. Further, the Activity with Nicotiana tabacum [8] turned out to be 50%; in the experiment with Tobacco mosaic virus [9] it was 48%; in the experiment with Fusarium graminearum, 28%; with Phytophthora infestans, 11%; with Tobacco mosaic virus [10], 62%; in the experiment with Tobacco mosaic virus [11], 39%. The inhibition at 500 µg/mL in the experiment on Tobacco mosaic virus [6] came to 58%. For the same molecule, the inhibition at 100 µg/mL in the experiment with Tobacco mosaic virus [7] was found to be 44%.
For the molecule `Cc1ccc(N(C(=O)c2snnc2C)C(C(=O)NC2CCCCC2)c2ccc([N+](=O)[O-])cc2)cc1F` (stereo not given), the Activity was determined as 68% in the experiment with Nicotiana tabacum [1]; 59% in the experiment on Tobacco mosaic virus [2]; 0% with Thanatephorus cucumeris; 0% in experiment [3]; 18% in the experiment with Tobacco mosaic virus [4]; 0% in the experiment with Alternaria solani. In addition, the Activity with Tobacco mosaic virus [5] worked out at 38%; with Cercospora beticola, 17%; in the experiment with Mycosphaerella arachidis, 14%; with Colletotrichum lagenaria it was 0%; in the experiment with Rhizoctonia solani, 40%; in the experiment on Pyricularia grisea it was 0%. The Activity with Nicotiana tabacum [8] stood at 36%; in the experiment with Tobacco mosaic virus [9] it was 48%; in the experiment on Fusarium graminearum, 34%; in the experiment on Phytophthora infestans, 16%; in the experiment with Tobacco mosaic virus [10] it was 57%; in the experiment with Tobacco mosaic virus [11] it was 36%. Besides, the inhibition at 500 µg/mL in the experiment on Tobacco mosaic virus [6] turned out to be 39%. In addition, the inhibition at 100 µg/mL in the experiment on Tobacco mosaic virus [7] worked out at 26%.
`Cc1ccc(N(C(=O)c2snnc2C)C(C(=O)NC2CCCCC2)c2ccccc2C)cc1F` (stereo not given): the Activity with Nicotiana tabacum [1] is on record as 58%; in the experiment on Tobacco mosaic virus [2], 47%; in the experiment on Thanatephorus cucumeris, 16%; in experiment [3], 53%; with Tobacco mosaic virus [4], 23%; in the experiment with Alternaria solani it was 44%. Besides, the Activity worked out at 35% in the experiment with Tobacco mosaic virus [5]; 67% with Cercospora beticola; 79% in the experiment on Mycosphaerella arachidis; 43% with Colletotrichum lagenaria; 51% with Rhizoctonia solani; 57% in the experiment on Pyricularia grisea. For the same molecule, the Activity came out at 63% with Nicotiana tabacum [8]; 27% in the experiment with Tobacco mosaic virus [9]; 34% with Fusarium graminearum; 47% in the experiment with Phytophthora infestans; 60% in the experiment on Tobacco mosaic virus [10]; 18% with Tobacco mosaic virus [11]. In addition, the inhibition at 500 µg/mL in the experiment with Tobacco mosaic virus [6] stood at 52%. Also, 100 µg/mL produced 23% inhibition in the experiment with Tobacco mosaic virus [7].
On to `Cc1ccc(N(C(=O)c2snnc2C)C(C(=O)NC2CCCCC2)c2ccc(O)cc2)cc1F` (stereo not given), for which the Activity in the experiment on Nicotiana tabacum [1] was determined as 65%; with Tobacco mosaic virus [2], 43%; in the experiment with Thanatephorus cucumeris, 14%; in [3], 0%; in the experiment with Tobacco mosaic virus [4] it was 40%; in the experiment on Alternaria solani, 0%. Besides, the Activity with Tobacco mosaic virus [5] worked out at 55%; in the experiment on Cercospora beticola, 17%; in the experiment with Mycosphaerella arachidis it was 36%; in the experiment on Colletotrichum lagenaria it was 5%; in the experiment on Rhizoctonia solani, 40%; in the experiment on Pyricularia grisea, 14%. For the same molecule, the Activity worked out at 44% in the experiment with Nicotiana tabacum [8]; 65% with Tobacco mosaic virus [9]; 24% in the experiment on Fusarium graminearum; 0% with Phytophthora infestans; 68% in the experiment with Tobacco mosaic virus [10]; 34% in the experiment with Tobacco mosaic virus [11]. In the experiment with Tobacco mosaic virus [6], this molecule gave an inhibition at 500 µg/mL of 70%. In the experiment with Tobacco mosaic virus [7], this molecule yielded an inhibition at 100 µg/mL of 20%.
Regarding `Cc1ccc(N(C(=O)c2snnc2C)C(C(=O)NC2CCCCC2)c2ccccc2)cc1F` (stereo not given), the Activity with Nicotiana tabacum [1] amounted to 54%; in the experiment with Tobacco mosaic virus [2], 81%; with Thanatephorus cucumeris it was 0%; in [3], 0%; with Tobacco mosaic virus [4], 41%; with Alternaria solani it was 0%. For the same molecule, the Activity in the experiment with Tobacco mosaic virus [5] was determined as 49%; in the experiment on Cercospora beticola, 33%; in the experiment with Mycosphaerella arachidis, 21%; with Colletotrichum lagenaria, 14%; in the experiment with Rhizoctonia solani it was 28%; in the experiment on Pyricularia grisea it was 14%. Further, the Activity came to 69% in the experiment on Nicotiana tabacum [8]; 11% with Tobacco mosaic virus [9]; 45% in the experiment on Fusarium graminearum; 5% with Phytophthora infestans; 29% with Tobacco mosaic virus [10]; 47% in the experiment with Tobacco mosaic virus [11]. In the experiment with Tobacco mosaic virus [6], testing at 500 µg/mL gave an inhibition of 19%. Further, in the experiment on Tobacco mosaic virus [7], the inhibition at 100 µg/mL is 19%.
